Assay results: patent publication US20230233569A1 (Revolution Medicines, Inc., priority 2020, published 2023)
Read-outs that look alike come from different tables or passages of the source.

Tests used:
Experiment in all cases: Ras-Raf disruption / FRET / MOA assay (BRAF RBD)
Format in all cases: biochemical
KRAS G12D = KRAS G12D (Homo sapiens, UniProt P01116+P62937, G12D); details: with Cyclophilin A
How it was run: (§1)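 Compound-induced Ras–Cyclophilin A ternary complex disrupting BRAF RBD binding, read as IC50 from reduced TR-FRET ratio relative to DMSO. Final: Ras-GMPPNP 12.5 nM, BRAF RBD 50 nM, Cyclophilin A 25 μM, top compound 30 μM (3-fold, 10 points); 3 h at 25 °C, then 1.5 h with detection antibodies.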

KRAS G12S = KRAS G12S (Homo sapiens, UniProt P01116+P62937, G12S); details: with Cyclophilin A
Sequence of KRAS G12S (P01116 1-169 isoform P01116-2 G12S limits assumed): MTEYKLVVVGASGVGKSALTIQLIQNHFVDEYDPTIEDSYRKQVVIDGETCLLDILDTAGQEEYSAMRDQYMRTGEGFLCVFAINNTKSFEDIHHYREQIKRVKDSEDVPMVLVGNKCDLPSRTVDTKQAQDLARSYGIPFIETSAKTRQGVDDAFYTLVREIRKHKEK
Sequence of KRAS G12S (P62937 whole entry): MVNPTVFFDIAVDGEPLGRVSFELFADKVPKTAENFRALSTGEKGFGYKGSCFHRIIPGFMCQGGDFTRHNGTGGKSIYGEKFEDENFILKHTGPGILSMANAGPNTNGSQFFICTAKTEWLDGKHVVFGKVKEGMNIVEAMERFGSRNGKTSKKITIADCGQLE
How it was run: as §1

KRAS G12V = KRAS G12V (Homo sapiens, UniProt P01116+P62937, G12V); details: with Cyclophilin A
Sequence of KRAS G12V (P01116 1-169 isoform P01116-2 G12V limits assumed): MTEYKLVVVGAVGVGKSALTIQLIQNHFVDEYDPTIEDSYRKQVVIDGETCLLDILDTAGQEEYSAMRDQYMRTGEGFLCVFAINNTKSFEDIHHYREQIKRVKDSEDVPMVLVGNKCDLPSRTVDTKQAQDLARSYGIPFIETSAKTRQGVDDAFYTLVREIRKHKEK
Sequence of KRAS G12V (P62937 whole entry): as the sequence (P62937 whole entry) above
How it was run: as §1

KRAS G13C = KRAS G13C (Homo sapiens, UniProt P01116+P62937, G13C); details: with Cyclophilin A
Sequence of KRAS G13C (P01116 1-169 isoform P01116-2 G13C limits assumed): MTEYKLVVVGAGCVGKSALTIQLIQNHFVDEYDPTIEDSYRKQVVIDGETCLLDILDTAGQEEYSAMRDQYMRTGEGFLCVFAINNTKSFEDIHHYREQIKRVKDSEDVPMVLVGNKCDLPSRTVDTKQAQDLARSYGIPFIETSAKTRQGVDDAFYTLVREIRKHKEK
Sequence of KRAS G13C (P62937 whole entry): as the sequence (P62937 whole entry) above
How it was run: as §1

KRAS G13D = KRAS G13D (Homo sapiens, UniProt P01116+P62937, G13D); details: with Cyclophilin A
Sequence of KRAS G13D (P01116 1-169 isoform P01116-2 G13D limits assumed): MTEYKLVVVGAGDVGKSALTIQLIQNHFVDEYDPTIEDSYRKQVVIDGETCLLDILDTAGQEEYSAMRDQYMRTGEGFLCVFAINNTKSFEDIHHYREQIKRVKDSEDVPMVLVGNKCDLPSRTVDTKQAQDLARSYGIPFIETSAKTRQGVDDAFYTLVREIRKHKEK
Sequence of KRAS G13D (P62937 whole entry): as the sequence (P62937 whole entry) above
How it was run: as §1

KRAS WT = KRAS WT (Homo sapiens, UniProt P01116+P62937); details: with Cyclophilin A
Sequence of KRAS WT (P01116 1-169 isoform P01116-2 limits assumed): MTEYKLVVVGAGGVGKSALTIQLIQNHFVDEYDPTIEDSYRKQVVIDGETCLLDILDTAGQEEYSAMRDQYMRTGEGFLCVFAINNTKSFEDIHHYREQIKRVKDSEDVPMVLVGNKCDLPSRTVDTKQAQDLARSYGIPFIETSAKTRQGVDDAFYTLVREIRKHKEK
Sequence of KRAS WT (P62937 whole entry): as the sequence (P62937 whole entry) above
How it was run: as §1

NRAS G12C = NRAS G12C (Homo sapiens, UniProt P01111+P62937, G12C)
Sequence of NRAS G12C (P01111 whole entry G12C): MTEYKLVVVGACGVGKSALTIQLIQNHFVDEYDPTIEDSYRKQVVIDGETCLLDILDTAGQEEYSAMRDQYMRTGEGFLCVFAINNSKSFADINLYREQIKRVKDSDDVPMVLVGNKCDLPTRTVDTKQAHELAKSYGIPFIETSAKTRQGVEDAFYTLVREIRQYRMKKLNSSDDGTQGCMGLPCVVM
Sequence of NRAS G12C (P62937 whole entry): as the sequence (P62937 whole entry) above
How it was run: as §1

KRAS G12C = KRAS G12C (Homo sapiens, UniProt P01116+P62937, G12C); details: with Cyclophilin A
Sequence of KRAS G12C (P01116 1-169 isoform P01116-2 G12C limits assumed): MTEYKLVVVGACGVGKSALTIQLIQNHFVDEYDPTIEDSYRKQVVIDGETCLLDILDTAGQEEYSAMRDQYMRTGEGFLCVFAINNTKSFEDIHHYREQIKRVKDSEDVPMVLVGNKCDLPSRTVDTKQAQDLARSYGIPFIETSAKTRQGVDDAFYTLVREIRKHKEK
Sequence of KRAS G12C (P62937 whole entry): as the sequence (P62937 whole entry) above
How it was run: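 TR-FRET read-out after 1.5 h with anti-His Eu-W1024 (10 nM) and anti-GST APC (50 nM), following 3 h at 25 °C of compound (top 30 μM, 3-fold, 10 points) with 25 μM Cyclophilin A, 12.5 nM GMPPNP-loaded K-Ras G12C and 50 nM BRAF RBD; IC50 reported.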

[1] = KRAS G12D FRET data IC50, Ras-Raf disruption
[2] = KRAS G12S FRET data IC50, Ras-Raf disruption
[3] = KRAS G12V FRET data IC50, Ras-Raf disruption
[4] = KRAS G13C FRET data IC50, Ras-Raf disruption
[5] = KRAS G13D FRET data IC50, Ras-Raf disruption
[6] = KRAS WT FRET data IC50, Ras-Raf disruption
[7] = NRAS G12C FRET data IC50, NRAS G12C
[8] = KRAS G12C FRET data IC50, Ras-Raf disruption
[9] = Ras-Raf disruption, read-out: KRAS G12D FRET data IC50
[10] = Ras-Raf disruption, read-out: KRAS G12S FRET data IC50
[11] = Ras-Raf disruption, read-out: KRAS G12V FRET data IC50
[12] = Ras-Raf disruption, read-out: KRAS G13C FRET data IC50
[13] = Ras-Raf disruption, read-out: KRAS G13D FRET data IC50
[14] = Ras-Raf disruption, read-out: KRAS WT FRET data IC50
[15] = NRAS G12C, read-out: NRAS G12C FRET data IC50
[16] = Ras-Raf disruption, read-out: KRAS G12C FRET data IC50

Sequence of KRAS G12D (P01116 1-169 isoform P01116-2 G12D limits assumed): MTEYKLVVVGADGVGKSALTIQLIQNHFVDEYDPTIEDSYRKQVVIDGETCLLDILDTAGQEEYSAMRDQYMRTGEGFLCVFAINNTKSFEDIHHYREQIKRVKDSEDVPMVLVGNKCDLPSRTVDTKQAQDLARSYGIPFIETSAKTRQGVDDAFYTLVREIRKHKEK
Sequence of KRAS G12D (P62937 whole entry): as the sequence (P62937 whole entry) above

SMILES | IC50 (KRAS G12D; [1]) [nM] | IC50 (KRAS G12S; [2]) [nM] | IC50 (KRAS G12V; [3]) [nM] | IC50 (KRAS G13C; [4]) [nM] | IC50 (KRAS G13D; [5]) [nM] | IC50 (KRAS WT; [6]) [nM] | IC50 (NRAS G12C; [7]) [nM] | IC50 (KRAS G12C; [8]) [nM] | IC50 (KRAS G12D; [9]) [nM] | IC50 (KRAS G12S; [10]) [nM] | IC50 (KRAS G12V; [11]) [nM] | IC50 (KRAS G13C; [12]) [nM] | IC50 (KRAS G13D; [13]) [nM] | IC50 (KRAS WT; [14]) [nM] | IC50 (NRAS G12C; [15]) [nM] | IC50 (KRAS G12C; [16]) [nM]
CCn1c(-c2cccnc2[C@H](C)OC)c2c3cc(ccc31)-c1cc(O)cc(c1)C[C@H](NC(=O)[C@H](C(C)C)N(C)C(=O)[C@H]1CCN1C(=O)[C@@H]1CN1)C(=O)N1CCC[C@H](N1)C(=O)OCC(C)(C)C2 [Example 157] | 100 to 1000 | 10 to 100 | 10 to 100 | 10 to 100 | 10 to 100 | 10 to 100 | 10 to 100 | 10 to 100 | – | – | – | – | – | – | – | –
CCn1c(-c2cccnc2[C@H](C)OC)c2c3cc(ccc31)-c1cc(O)cc(c1)C[C@H](NC(=O)[C@H](C(C)C)N(C)C(=O)[C@H]1CCN1C(=O)[C@H]1CN1)C(=O)N1CCC[C@H](N1)C(=O)OCC(C)(C)C2 [Example 158] | 100 to 1000 | 10 to 100 | 10 to 100 | 10 to 100 | 10 to 100 | 10 to 100 | 10 to 100 | 10 to 100 | – | – | – | – | – | – | – | –
CCn1c(-c2cccnc2[C@H](C)OC)c2c3cc(ccc31)-c1csc(n1)C[C@H](NC(=O)[C@H](C(C)C)N(C)C(=O)N1CCN(C(=O)[C@@H]3CN3)CC1)C(=O)N1CCC[C@H](N1)C(=O)OCC(C)(C)C2 [Example 168] | – | – | – | – | – | – | – | – | 100 to 1000 | 10 to 100 | 100 to 1000 | 100 to 1000 | 100 to 1000 | 10 to 100 | 10 to 100 | 10 to 100
CCn1c(-c2cccnc2[C@H](C)OC)c2c3cc(ccc31)-c1csc(n1)C[C@H](NC(=O)[C@H](C(C)C)N(C)C(=O)N1CCN(C(=O)[C@H]3CN3)CC1)C(=O)N1CCC[C@H](N1)C(=O)OCC(C)(C)C2 [Example 169] | – | – | – | – | – | – | – | – | 100 to 1000 | 10 to 100 | 100 to 1000 | 10 to 100 | 100 to 1000 | 10 to 100 | 10 to 100 | 10 to 100
CCn1c(-c2cccnc2[C@H](C)OC)c2c3cc(ccc31)-c1cc(O)cc(c1)C[C@H](NC(=O)[C@H](C(C)C)N(C)C(=O)[C@@]1(F)CCN(C(=O)[C@H]3CN3)C1)C(=O)N1CCC[C@H](N1)C(=O)OCC(C)(C)C2 [Example 171] | – | – | – | – | – | – | – | – | 10 to 100 | 10 to 100 | 10 to 100 | 10 to 100 | 10 to 100 | 10 to 100 | < 10 | < 10
CCn1c(-c2cccnc2[C@H](C)OC)c2c3cc(ccc31)-c1cc(O)cc(c1)C[C@H](NC(=O)[C@H](C(C)C)N(C)C(=O)[C@@H]1CCN(C(=O)[C@@H]3CN3)C1)C(=O)N1CCC[C@H](N1)C(=O)OCC(C)(C)C2 [Example 172] | – | – | – | – | – | – | – | – | 100 to 1000 | 10 to 100 | 10 to 100 | 10 to 100 | 10 to 100 | 10 to 100 | 10 to 100 | 10 to 100
CCn1c(-c2cccnc2[C@H](C)OC)c2c3cc(ccc31)-c1cc(O)cc(c1)C[C@H](NC(=O)[C@H](C(C)C)N(C)C(=O)N1CCCN(C(=O)[C@@H]3CN3)CC1)C(=O)N1CCC[C@H](N1)C(=O)OCC(C)(C)C2 [Example 173] | – | – | – | – | – | – | – | – | 10 to 100 | 10 to 100 | 10 to 100 | 10 to 100 | 10 to 100 | 10 to 100 | 10 to 100 | 10 to 100
CCn1c(-c2cccnc2[C@H](C)OC)c2c3cc(ccc31)-c1cc(O)cc(c1)C[C@H](NC(=O)[C@H](C1CCCC1)N1CC[C@@]3(CCN(C(=O)[C@H]4CN4)C3)C1=O)C(=O)N1CCC[C@H](N1)C(=O)OCC(C)(C)C2 [Example 174] | – | – | – | – | – | – | – | – | 100 to 1000 | 10 to 100 | 10 to 100 | 10 to 100 | 10 to 100 | 10 to 100 | < 10 | < 10
CCn1c(-c2cccnc2[C@H](C)OC)c2c3cc(ccc31)-c1cc(O)cc(c1)C[C@H](NC(=O)[C@H](C1CCCC1)N1CC[C@]3(CCN(C(=O)[C@H]4CN4)C3)C1=O)C(=O)N1CCC[C@H](N1)C(=O)OCC(C)(C)C2 [Example 175, (2S)-2-((S)-7-((R)-aziridine-2-carbonyl)-1-oxo-2,7-diazaspiro[4.4]nonan-2-yl)-2-cyclopentyl-N-((6^3S,4S)-1^1-ethyl-2^5-hydroxy-1^2-(2-((S)-1-methoxyethyl)pyridin-3-yl)-10,10-dimethyl-5,7-dioxo-6^1,6^2,6^3,6^4,6^5,6^6-hexahydro-1^1H-8-oxa-1(5,3)-indola-6(1,3)-pyridazina-2(1,3)-benzenacycloundecaphane-4-yl)acetamide] | – | – | – | – | – | – | – | – | 10 to 100 | 10 to 100 | 10 to 100 | 10 to 100 | 10 to 100 | 10 to 100 | < 10 | < 10
CCn1c(-c2cccnc2[C@H](C)OC)c2c3cc(ccc31)-c1cc(O)cc(c1)C[C@H](NC(=O)[C@H](C(C)C)N(C)C(=O)N1CCN(C(=O)[C@H]3CN3)CC1)C(=O)N1CCC[C@H](N1)C(=O)OCC(C)(C)C2 [Example 177, 4-((R)-aziridine-2-carbonyl)-N-((2S)-1-(((6^3S,4S)-1^1-ethyl-2^5-hydroxy-1^2-(2-((S)-1-methoxyethyl)pyridin-3-yl)-10,10-dimethyl-5,7-dioxo-6^1,6^2,6^3,6^4,6^5,6^6-hexahydro-1^1H-8-oxa-1(5,3)-indola-6(1,3)-pyridazina-2(1,3)-benzenacycloundecaphane-4-yl)amino)-3-methyl-1-oxobutan-2-yl)-N-methylpiperazine-1-carboxamide] | – | – | – | – | – | – | – | – | 100 to 1000 | 10 to 100 | 10 to 100 | 10 to 100 | 10 to 100 | 10 to 100 | 10 to 100 | 10 to 100
CCn1c(-c2cccnc2[C@H](C)OC)c2c3cc(ccc31)-c1cc(O)cc(c1)C[C@H](NC(=O)[C@H](C(C)C)N(C)C(=O)CC1CN(C(=O)[C@@H]3CN3)C1)C(=O)N1CCC[C@H](N1)C(=O)OCC(C)(C)C2 [Example 178] | – | – | – | – | – | – | – | – | 100 to 1000 | 100 to 1000 | 100 to 1000 | 10 to 100 | 100 to 1000 | 100 to 1000 | 10 to 100 | 10 to 100
CCn1c(-c2cccnc2[C@H](C)OC)c2c3cc(ccc31)-c1cc(O)cc(c1)C[C@H](NC(=O)[C@H](C(C)C)N(C)C(=O)CC1CN(C(=O)[C@H]3CN3)C1)C(=O)N1CCC[C@H](N1)C(=O)OCC(C)(C)C2 [Example 179] | – | – | – | – | – | – | – | – | 100 to 1000 | 100 to 1000 | 100 to 1000 | 10 to 100 | 100 to 1000 | 100 to 1000 | 10 to 100 | 10 to 100
CCn1c(-c2cccnc2[C@H](C)OC)c2c3cc(ccc31)-c1cc(O)cc(c1)C[C@H](NC(=O)[C@H](C(C)C)N(C)C(=O)C1CC3(C1)CN(C(=O)[C@@H]1CN1)C3)C(=O)N1CCC[C@H](N1)C(=O)OCC(C)(C)C2 [Example 180] | – | – | – | – | – | – | – | – | 1000 to 10000 | 100 to 1000 | 100 to 1000 | 10 to 100 | 100 to 1000 | 100 to 1000 | 100 to 1000 | 100 to 1000
CCn1c(-c2cccnc2[C@H](C)OC)c2c3cc(ccc31)-c1cc(O)cc(c1)C[C@H](NC(=O)[C@H](C(C)C)N(C)C(=O)[C@H]1C[C@H](NC(=O)[C@H]3CN3)C1)C(=O)N1CCC[C@H](N1)C(=O)OCC(C)(C)C2 [Example 182] | – | – | – | – | – | – | – | – | 100 to 1000 | 10 to 100 | 10 to 100 | < 10 | 10 to 100 | 10 to 100 | 10 to 100 | 10 to 100
CCn1c(-c2cccnc2[C@H](C)OC)c2c3cc(ccc31)-c1cc(O)cc(c1)C[C@H](NC(=O)[C@H](C(C)C)N(C)C(=O)N1CCN(C(=O)[C@@H]3CN3)C(=O)C1)C(=O)N1CCC[C@H](N1)C(=O)OCC(C)(C)C2 [Example 194] | – | – | – | – | – | – | – | – | 100 to 1000 | 100 to 1000 | 100 to 1000 | 10 to 100 | 10 to 100 | 100 to 1000 | 100 to 1000 | 100 to 1000
